{
  "source": "patent US5013722A",
  "about": "“Cholecystokinin analogs for controlling appetite” (Hoffmann-LaRoche Inc., priority 1989, dated 1991)",
  "key": {"[1]": {"tested_on": "Male rats, food intake", "assay": "Two-meal feeding assay, intranasal administration", "type": "in vivo, rat", "details": "for Food Intake 1st meal (%) / Food Intake 2nd meal (%): saline = 100", "procedure": "(§1) Male Sprague-Dawley (CD) rats weighing 180-200 grams (Charles River Breeding Laboratories) were acclimated to a 12 h light/dark cycle (6 a.m. to 6 p.m.) in a room kept at 22° C. They were subsequently fasted for two days, weighed, placed in individual cages, and a four-day period of meal training was begun. During this time the rats were given ground laboratory chow (Purina Lab Chow) in jars for one hour from 9:00 a.m. until 10:00 a.m., the jars were removed from 10:00 a.m. to 12:00 p.m., and placed back in the cages from 12:00 until 1:00 p.m. Under this `1-2-1` meal feeding regime most rats learn to eat approximately as much Per day during the two hours they have access to food as rats which have food ad libitum over the entire 24-hour day. On the fourth day, the rats were weighed again, and any which lost more than five grams body weight were excluded from the test. The animals were then distributed into experimental (n=5 to 6) and control groups (n=6-12). but not matched for body weight.\nMale rats were meal trained as described in Example 9. The peptide of Example 2 was dissolved in saline and was administered to the rats intranasally. CCK-8, dissolved in saline was used as a control."}, "[2]": {"target": "T1, Rat kidney metalloendopeptidase (Rattus norvegicus, UniProt P07861)", "T1 construct": "from tissue; host or cells: rat kidney", "T1 sequence (P07861 1-750)": "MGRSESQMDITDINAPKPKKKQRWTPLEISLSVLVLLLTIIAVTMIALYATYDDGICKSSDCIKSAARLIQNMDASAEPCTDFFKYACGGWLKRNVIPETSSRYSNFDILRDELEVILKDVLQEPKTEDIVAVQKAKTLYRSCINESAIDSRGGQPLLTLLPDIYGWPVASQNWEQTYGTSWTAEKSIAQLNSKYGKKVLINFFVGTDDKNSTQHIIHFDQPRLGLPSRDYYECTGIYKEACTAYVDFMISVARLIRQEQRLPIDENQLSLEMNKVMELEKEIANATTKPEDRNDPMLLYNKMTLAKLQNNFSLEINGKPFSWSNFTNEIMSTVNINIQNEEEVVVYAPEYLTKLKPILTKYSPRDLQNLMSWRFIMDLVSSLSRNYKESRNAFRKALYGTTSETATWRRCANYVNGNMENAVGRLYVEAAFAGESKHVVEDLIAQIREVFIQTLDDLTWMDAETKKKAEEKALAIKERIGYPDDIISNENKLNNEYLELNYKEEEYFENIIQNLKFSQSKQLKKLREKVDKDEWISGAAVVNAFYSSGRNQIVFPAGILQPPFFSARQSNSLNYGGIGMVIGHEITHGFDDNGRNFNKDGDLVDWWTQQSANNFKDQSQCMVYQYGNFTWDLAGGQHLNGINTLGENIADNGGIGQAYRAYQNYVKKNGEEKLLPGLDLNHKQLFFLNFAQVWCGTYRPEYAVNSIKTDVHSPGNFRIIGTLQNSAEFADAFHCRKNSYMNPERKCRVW", "assay": "Degradation by rat kidney metalloendopeptidase (HPLC)", "type": "in vitro ADME", "details": "for % Degradation by Height: 37° C., pH 7.6", "procedure": "Rat kidney metalloendopeptidase (0.01 μg) and 5 nmol of peptide were incubated in 2 μmol tris-HCl buffer (pH 7.6) and at 37° C. for varying periods of time. The degradation of the peptide was monitored by analytical HPLC on a 5 micron Adsorbosphere-ODS column with a 0-50% CH3 CN gradient in 0.1N potassium phosphate, pH 3.0, with UV detection at 210 nm. Rates are based on presumed production of Asp-Tyr(SO3 H)-Met-Gly for CCK-8 and the presumed production of Ac-Tyr(SO3 H)-Met-Gly for Example 2 and 3."}, "[3]": {"target": "T2, receptors in bovine striatum (3H-CCK-8-(SO3 H) binding, central receptor) (Bos taurus, UniProt P79266)", "T2 construct": "receptors in homogenized preparations of rat pancreatic cells and bovine striata; from tissue; host or cells: bovine striatum homogenate (48,000 x g pellet)", "T2 sequence (P79266 1-454)": "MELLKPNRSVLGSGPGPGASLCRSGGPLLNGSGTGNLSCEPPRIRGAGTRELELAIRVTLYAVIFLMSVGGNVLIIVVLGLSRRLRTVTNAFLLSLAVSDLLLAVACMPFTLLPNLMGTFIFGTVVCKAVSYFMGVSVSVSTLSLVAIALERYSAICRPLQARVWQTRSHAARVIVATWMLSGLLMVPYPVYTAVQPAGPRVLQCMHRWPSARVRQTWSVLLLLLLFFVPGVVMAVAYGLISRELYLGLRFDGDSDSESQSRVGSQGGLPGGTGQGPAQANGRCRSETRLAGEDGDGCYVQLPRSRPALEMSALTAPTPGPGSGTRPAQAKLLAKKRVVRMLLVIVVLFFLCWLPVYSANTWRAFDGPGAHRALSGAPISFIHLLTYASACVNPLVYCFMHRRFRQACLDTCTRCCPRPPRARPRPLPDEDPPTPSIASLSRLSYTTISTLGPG", "assay": "In vitro receptor binding assay, bovine striatum homogenate, 3H-CCK-8-(SO3H) radioligand", "details": "0.15 nM radioligand, 30 min, 25° C.; read-out: Bovine Striatum IC50 (inhibition of specific 3H-CCK-8-(SO3H) binding)", "description": "Frozen bovine striatum (approx. 5 g) and fresh rat pancreas (approx. 5 g) cleaned of fat and extraneous tissue were homogenized in HEPES buffer #1 (10 mM HEPES+130 mM NaCl+5 mM MgCl2. pH 7.4) using 35 parts buffer per 1 part tissue on a wet weight/volume basis (approx. 175 ml). The tissue was homogenized 2 x for approx. 15 sec. at 0° C. using a Polytron homogenizer at a setting of 6. The tissue was isolated by centrifugation at 48,000 x g for 10 min. at 0° C. The resulting tissue pellet was resuspended in HEPES buffer #2 (10 mM HEPES+130 mM NaCl+5 mM MgCl2 +1 mg/L phenylmethanesulfonyl fluoride (PMSF)+200 mg/L Bacitracin): 1 part striatal tissue (original wet weight) per 80 parts buffer and 1 part pancreas tissue (original wet weight) per 70 parts buffer.\nIncubation was initiated by combining various concentrations of native CCK-8 or peptides of formula I, II and III with ^3 H-CCK-8-(SO3 H) (final conc.=0.15 nM) and tissue homogenate (striatum 0.26 mg protein in 2 ml final volume; pancreas 0.165 mg protein in 1 ml final volume). Samples were incubated for 30 min. at 25° C. and the incubation terminated by pouring the mixture onto a pre-wet Whatman GF/B filter on a Sandbeck Vacuum Filtration Manifold. The incubation tubes were washed with 2×3 ml of ice-cold HEPES Buffer #2 and the wash filtered through the GF/B filter. The filter was air dried for 10 min. and then placed in a scintillation vial with 12 ml of Beckman HP/b Ready-Solv scintillation cocktail. The vials were shaken for 2 hours and then counted using a Beckman Model 7800 liquid scintillation spectrometer. Non-specific binding was determined in the presence of 1 micromole native CCK-8 and subtracted from all samples to determine specific binding. The concentration of ^3 peptide necessary to inhibit 50% of total specific H-CCK-8-(SO3 H) binding (IC50 value) was determined by log-probit analysis."}, "[4]": {"tested_on": "Male Sprague-Dawley (CD) rats, food intake", "assay": "Two-meal feeding assay, intraperitoneal administration", "type": "in vivo, rat", "procedure": "as §1\nPeptides of the invention were suspended either in saline. if soluble, or in 1% gum arabic, if insoluble, at concentrations of 0 to 320 μg/ml/kg body weight and were administered intraperitonerally 15 min before the first meal on day 5 of meal feeding. The rats were then given their meals as they had been during the previous four days, and the food cups were weighed both before and after each meal to determine food consumption. Food intake was expressed as a mean and standard error of the mean in grams consumed or as a percent of control values for the various groups. The treated groups were compared to the control groups by t-test analysis. […]"}},
  "note": "“Also recorded” adds a separate entry of the source. Where a SMILES comes first, the peptide text is derived from it. [ ]: non-standard residue; d: D form. Thr(SO3H) = C[C@@H](OS(=O)(=O)O)[C@H](N)C(=O)O; sY = N[C@@H](Cc1ccc(OS(=O)(=O)O)cc1)C(=O)O; NMeF = CN[C@@H](Cc1ccccc1)C(=O)O",
  "data": [
    {"smiles": "CSCC[C@H](NC(=O)[C@H](Cc1ccc(OS(=O)(=O)O)cc1)NC(C)=O)C(=O)NCC(=O)N[C@@H](Cc1c[nH]c2ccccc12)C(=O)N[C@@H](CCSC)C(=O)N[C@H](C(=O)N(C)[C@@H](Cc1ccccc1)C(N)=O)[C@@H](C)OS(=O)(=O)O", "note": "[Example 2, Ac-Tyr(SO3 H)-Met-Gly-Trp-Met-Thr(SO3 H)-N-methyl-Phe-NH2] (Ac-[sY]MGWM[Thr(SO3H)][NMeF]-NH2)", "values": [
      {"measurement": "Food Intake 1st meal Grams consumed", "setting": "[1]; 3 μg/kg intranasal", "value": "7.5 ± 0.8", "unit": "Grams"},
      {"measurement": "Food Intake 2nd meal Grams consumed", "setting": "[1]; 3 μg/kg intranasal", "value": "6.1 ± 0.3", "unit": "Grams"},
      {"measurement": "Food Intake 1st meal (%)", "setting": "[1]; 3 μg/kg intranasal", "value": 102, "unit": "%"},
      {"measurement": "Food Intake 2nd meal (%)", "setting": "[1]; 3 μg/kg intranasal", "value": 109, "unit": "%"},
      {"measurement": "Food Intake 1st meal Grams consumed", "setting": "[1]; 10 μg/kg intranasal", "value": "5.5 ± 0.6", "unit": "Grams"},
      {"measurement": "Food Intake 2nd meal Grams consumed", "setting": "[1]; 10 μg/kg intranasal", "value": "6.3 ± 0.4", "unit": "Grams"},
      {"measurement": "Food Intake 1st meal (%)", "setting": "[1]; 10 μg/kg intranasal", "value": 74, "unit": "%"},
      {"measurement": "Food Intake 2nd meal (%)", "setting": "[1]; 10 μg/kg intranasal", "value": 112, "unit": "%"},
      {"measurement": "Food Intake 1st meal Grams consumed", "setting": "[1]; 30 μg/kg intranasal", "value": "5.8 ± 0.7", "unit": "Grams"},
      {"measurement": "Food Intake 2nd meal Grams consumed", "setting": "[1]; 30 μg/kg intranasal", "value": "4.3 ± 0.6", "unit": "Grams"},
      {"measurement": "Food Intake 1st meal (%)", "setting": "[1]; 30 μg/kg intranasal", "value": 78, "unit": "%"},
      {"measurement": "Food Intake 2nd meal (%)", "setting": "[1]; 30 μg/kg intranasal", "value": 76, "unit": "%"},
      {"measurement": "Food Intake 1st meal Grams consumed", "setting": "[1]; 100 μg/kg intranasal", "value": "3.4 ± 0.4", "unit": "Grams"},
      {"measurement": "Food Intake 2nd meal Grams consumed", "setting": "[1]; 100 μg/kg intranasal", "value": "4.6 ± 0.5", "unit": "Grams"},
      {"measurement": "Food Intake 1st meal (%)", "setting": "[1]; 100 μg/kg intranasal", "value": 46, "unit": "%"},
      {"measurement": "Food Intake 2nd meal (%)", "setting": "[1]; 100 μg/kg intranasal", "value": 82, "unit": "%"},
      {"measurement": "% Degradation by Height", "setting": "[2]; incubation 0 min", "value": 0, "unit": "%"},
      {"measurement": "% Degradation by Height", "setting": "[2]; incubation 60 min", "value": 19.4, "unit": "%"},
      {"measurement": "% Degradation by Height", "setting": "[2]; incubation 120 min", "value": 30.3, "unit": "%"},
      {"measurement": "No. of Peaks (degradation products)", "setting": "[2]; incubation 240 min", "value": 2},
      {"measurement": "% Degradation by Height", "setting": "[2]; incubation 240 min", "value": 56.4, "unit": "%"},
      {"measurement": "IC50", "setting": "[3]", "value": "100 to 500", "unit": "nM"},
      {"measurement": "Food Intake 1st Meal", "setting": "[4]; 32 microgm/Kg i.p., 15 min before first meal, mean ± SEM", "value": "8 ± 1 % of Control"},
      {"measurement": "Food Intake 2nd Meal", "setting": "[4]; 32 microgm/Kg i.p., mean ± SEM", "value": "26 ± 4 % of Control"},
      {"measurement": "Food intake suppression over dosage range compared with CCK-8 (FIG. 1)", "setting": "[4]; first meal, i.p., dosage range of FIG. 1", "value": "effectively reduced food intake during the first meal at a much lower dosage range than did CCK-8; also recorded: effectively suppresses food intake in rats at a lower dosage than does CCK-8"}
    ]}
  ]
}
